Reference: BindingDB's records for doi:10.1016/0166-4328(96)00089-7 (Glaxo Research and Development, 1996)

Assays:
[1] = target: 5-hydroxytryptamine receptor 5A (Homo sapiens, UniProt P47898)
[2] = target: T1, 5-hydroxytryptamine receptor 3A (Rattus norvegicus, UniProt P35563)
T1 sequence (P35563 whole entry): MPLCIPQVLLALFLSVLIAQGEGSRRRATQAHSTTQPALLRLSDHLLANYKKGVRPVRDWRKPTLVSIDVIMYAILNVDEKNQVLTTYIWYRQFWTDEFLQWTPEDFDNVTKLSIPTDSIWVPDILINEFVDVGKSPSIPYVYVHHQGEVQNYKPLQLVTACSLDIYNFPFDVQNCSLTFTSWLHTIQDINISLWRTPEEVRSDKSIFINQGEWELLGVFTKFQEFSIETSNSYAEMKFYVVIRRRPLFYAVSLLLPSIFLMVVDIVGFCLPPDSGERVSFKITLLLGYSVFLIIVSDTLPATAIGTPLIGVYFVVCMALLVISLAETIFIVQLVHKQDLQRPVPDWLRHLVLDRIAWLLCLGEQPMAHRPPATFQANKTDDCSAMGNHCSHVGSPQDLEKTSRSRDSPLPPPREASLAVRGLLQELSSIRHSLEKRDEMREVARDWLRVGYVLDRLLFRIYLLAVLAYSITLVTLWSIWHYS

[3] = target: T2, 5-hydroxytryptamine receptor 2C (Sus scrofa, UniProt G7ZKZ7)
T2 sequence (G7ZKZ7 whole entry): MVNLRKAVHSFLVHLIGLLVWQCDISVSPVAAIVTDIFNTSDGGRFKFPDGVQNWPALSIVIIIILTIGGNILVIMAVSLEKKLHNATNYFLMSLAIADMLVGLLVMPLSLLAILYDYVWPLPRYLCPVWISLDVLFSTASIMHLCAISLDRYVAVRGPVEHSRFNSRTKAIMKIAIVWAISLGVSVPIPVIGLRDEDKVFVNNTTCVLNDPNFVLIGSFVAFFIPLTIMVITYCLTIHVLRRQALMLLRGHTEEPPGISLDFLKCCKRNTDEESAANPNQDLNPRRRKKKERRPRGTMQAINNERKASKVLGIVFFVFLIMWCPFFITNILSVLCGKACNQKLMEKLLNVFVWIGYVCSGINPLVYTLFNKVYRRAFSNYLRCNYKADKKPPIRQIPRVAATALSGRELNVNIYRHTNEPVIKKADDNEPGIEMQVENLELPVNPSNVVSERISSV

[4] = target: 5-hydroxytryptamine receptor 4 (Cavia porcellus, UniProt O70528)
Chain of 5-hydroxytryptamine receptor 4 (O70528 whole entry): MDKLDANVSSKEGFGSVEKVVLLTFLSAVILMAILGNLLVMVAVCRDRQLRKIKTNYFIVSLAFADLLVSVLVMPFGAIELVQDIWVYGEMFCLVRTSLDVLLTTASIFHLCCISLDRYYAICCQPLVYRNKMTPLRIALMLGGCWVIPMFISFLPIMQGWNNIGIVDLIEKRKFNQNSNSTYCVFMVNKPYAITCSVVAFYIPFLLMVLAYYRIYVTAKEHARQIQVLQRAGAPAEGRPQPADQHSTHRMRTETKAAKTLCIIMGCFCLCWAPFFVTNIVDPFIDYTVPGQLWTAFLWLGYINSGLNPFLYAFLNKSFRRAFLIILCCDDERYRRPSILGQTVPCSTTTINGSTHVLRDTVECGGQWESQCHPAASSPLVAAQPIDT

[5] = target: 5-hydroxytryptamine receptor 2A (Rattus norvegicus, UniProt P14842)
Chain of 5-hydroxytryptamine receptor 2A (P14842 whole entry): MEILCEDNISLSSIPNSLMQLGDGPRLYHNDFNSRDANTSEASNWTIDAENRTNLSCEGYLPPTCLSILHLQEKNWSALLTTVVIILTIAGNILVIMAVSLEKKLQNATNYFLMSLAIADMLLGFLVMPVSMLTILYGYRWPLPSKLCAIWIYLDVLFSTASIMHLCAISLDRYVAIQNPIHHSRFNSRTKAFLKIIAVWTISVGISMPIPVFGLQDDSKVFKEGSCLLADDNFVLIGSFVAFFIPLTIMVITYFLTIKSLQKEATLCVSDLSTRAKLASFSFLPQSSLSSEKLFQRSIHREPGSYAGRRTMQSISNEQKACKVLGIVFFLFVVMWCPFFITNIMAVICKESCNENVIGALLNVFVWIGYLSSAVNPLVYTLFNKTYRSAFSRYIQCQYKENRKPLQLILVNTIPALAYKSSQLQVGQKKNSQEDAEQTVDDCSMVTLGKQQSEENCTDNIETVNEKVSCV

Chain of 5-hydroxytryptamine receptor 5A (P47898 whole entry): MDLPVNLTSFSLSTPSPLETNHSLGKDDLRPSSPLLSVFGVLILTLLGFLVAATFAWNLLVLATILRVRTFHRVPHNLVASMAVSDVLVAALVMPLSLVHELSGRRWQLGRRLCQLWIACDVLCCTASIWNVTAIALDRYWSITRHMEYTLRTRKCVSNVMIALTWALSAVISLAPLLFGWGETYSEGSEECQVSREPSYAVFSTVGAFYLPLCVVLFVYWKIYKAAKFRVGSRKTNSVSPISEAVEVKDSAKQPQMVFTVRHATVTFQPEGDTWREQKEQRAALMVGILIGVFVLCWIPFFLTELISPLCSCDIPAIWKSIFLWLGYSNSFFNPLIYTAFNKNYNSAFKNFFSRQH

Ki [1]: 6.31 µM | Ki [2]: 6.31 µM | Ki [3]: 0.631 µM | Ki [4]: > 10 µM | Ki [5]: 0.0398 µM
Structure (SMILES): COc1ccc(NC(=O)c2ccc(-c3ccc(-c4noc(C)n4)cc3C)cc2)cc1N1CCN(C)CC1 [SMR001230745]
